Measurements taken from US9055743B2, “Alpha, beta-unsaturated imines” (BAYER INTELLECTUAL PROPERTY GMBH, priority 2010, dated 2015).

How the values were obtained:
Type in all cases: in vivo
Ctenocephalides felis = Ctenocephalides felis oral test (CTECFE); conditions: 100 ppm in citrated cattle blood, after two days
Outline: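 About 20 unfed adult C. felis fed through a parafilm membrane on citrated cattle blood containing compound (DMSO stock diluted to the desired concentration). Kill (%) determined after two days; 100% = all fleas dead, 0% = none dead.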

[1] = system: cat fleas (Ctenocephalides felis, fully sensitive laboratory strain); assay: Contact test against fleas in-vitro (CTECFE contact); conditions: for activity against cat fleas: 500 g/ha, after 48 h
Outline: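 Test tubes coated from acetone solutions by rotation, top concentration 500 g/ha (500 μg/dm^2) on tube surface, serial 1:5 dilutions. 10-20 CO2-anesthetized adult fleas held at room temperature for 24 and 48 h. Activity scored versus acetone control: knock-down or death of all fleas = 100%.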

Lucilia cuprina larvae = assay: Lucilia cuprina test (LUCICU); conditions: 100 ppm, after 2 days
Outline: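 Horsemeat treated with compound (DMSO concentrate diluted in water) was populated with about 20 L. cuprina larvae. Percent kill was scored after 2 days, from 100% (all larvae dead) to 0% (none dead).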

[2] = system: green peach aphid (Myzus persicae); assay: Myzus test (MYZUPE spray treatment); conditions: 500 g/ha, spray, after 6 days; for pest or weed control at 500 g/ha: Myzus persicae, 144 h, read-out: activity (aphids killed)
Outline: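 Chinese cabbage leaf discs infested with all aphid stages were sprayed with compound in acetone/DMF with emulsifier, diluted in emulsifier-containing water. Mortality in % assessed after 6 days (100% = all aphids killed).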

[3] = system: greenhouse red spider mite (Tetranychus urticae); assay: Tetranychus test; OP-resistant (TETRUR spray treatment); conditions: 500 g/ha, spray, after 6 days; for pest or weed control at 500 g/ha: Tetranychus urticae, 144 h, read-out: activity (spider mites killed)
Outline: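 Bean leaf discs infested with all stages of OP-resistant Tetranychus urticae were sprayed with compound in acetone/DMF with alkylaryl polyglycol ether emulsifier, diluted in emulsifier-water. Mortality was scored after 6 days: 100% means all mites killed, 0% none.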

Culex quinquefasciatus = assay: whole plant or invertebrate; conditions: for mortality at 100 mg/m2: Culex quinquefasciatus, read-out: activity (mortality in %); for knock-down activity: 100 mg/m^2, two hours after contact, exposition 30 minutes
Protocol: Culex Test (CULXFA Surface Treatment) Solvent: Acetone
To produce a suitable preparation of active compound, the active compound is dissolved in acetone (2 mg/ml). The active compound preparation is pipetted onto a glazed tile and, after drying, adult mosquitoes of the species Culex quinquefasciatus are placed onto the treated tile. The exposition time is 30 minutes.
Two hours after contact to the treated surface, the knock-down proportion of the test animals in % is determined.
24 hours after contact to the treated surface, the mortality in % is determined. Here, 100% means that all mosquitoes have been killed; 0% means that none of the mosquitoes has been killed.

[4] = system: caterpillars of the army worm (Spodoptera frugiperda); assay: Spodoptera frugiperda test (SPODFR spray treatment); conditions: 500 g/ha, spray, after 7 days; for pest or weed control at 500 g/ha: Spodoptera frugiperda, 168 h, read-out: activity (caterpillars killed)
Outline: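 Maize leaf discs sprayed with compound formulated in acetone/dimethylformamide plus alkylaryl polyglycol ether emulsifier and diluted in water, then infested with Spodoptera frugiperda caterpillars once dry. Mortality scored after 7 days as % activity, where 100% means all caterpillars killed.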

Aedes aegypti = assay: Aedes test (AEDSAE surface treatment); conditions: for knock-down activity: 100 mg/m^2, two hours after contact, exposition 30 minutes; for mortality at 100 mg/m2: Aedes aegypti, read-out: activity (mortality in %); for Kill rate in % after 24 h: active compound concentration 1.6 g/ha
Outline: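 Compound dissolved in acetone (2 mg/ml) and dried onto a glazed tile; adult mosquitoes exposed for 30 minutes. Knock-down % scored at 2 hours and mortality % at 24 hours after contact (100% = all killed).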

Boophilus microplus = Boophilus microplus test (BOOPMI injection); conditions: for activity (100% = none of the ticks has laid any fertile eggs): 20 μg/animal, injection into the abdomen, after 7 days
Outline: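 Ticks injected in the abdomen with compound in DMSO, then held in a climatized room. Effect scored after 7 days as % reduction in fertile egg laying, 100% meaning no fertile eggs.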

Structure (SMILES) | activity (kill in %) (Ctenocephalides felis) | activity against cat fleas [1] | activity (kill in %) (Lucilia cuprina larvae) | pest or weed control at 500 g/ha [2] | pest or weed control at 500 g/ha [3] | mortality at 100 mg/m2 (Culex quinquefasciatus) | pest or weed control at 500 g/ha [4] | knock-down activity (Aedes aegypti) | mortality at 100 mg/m2 (Aedes aegypti) | Kill rate in % after 24 h (Aedes aegypti) | activity (100% = none of the ticks has laid any fertile eggs) (Boophilus microplus) | activity (aphids killed) [2] | activity (spider mites killed) [3] | knock-down activity (Culex quinquefasciatus) | activity (caterpillars killed) [4] | Kill rate in % after 7 days (Boophilus microplus; active compound concentration 0.16 μg/animal) | Kill rate in % after 2 days ([1]; active compound concentration 0.032 g/ha)
Cc1ccc(N=C2C(=CSc3ccc(F)cc3)CSc3ccccc32)cc1 [Example 1-35] | 100% | 100% | 100% | 100% | 100% | 100% | 100% | 90% | 100% | 100% | 100% |  |  |  |  |  | 
Cc1ccc(N=C2C(=CSc3ccc(C)cc3)CCc3ccccc32)cc1 [Example 1-28] | 100% | 100% | 100% |  |  |  |  | 80% |  |  | 100% | 90% | 100% | 95% | 100% |  | 
Cc1ccc(N=C2C(=CSc3ccc(F)cc3)CCc3cc(F)ccc32)cc1 [Example 1-16] | 100% | 100% | 100% | 100% | 100% | 100% | 100% | 100% | 100% | 90% | 100% |  |  | 95% |  | 90% | 
Cc1ccc(N=C2C(=CSc3ccc(F)cc3)CCc3ccccc32)cc1 [Example 1-9] | 100% | 100% | 100% | 100% | 100% | 100% | 100% | 100% | 100% | 75% | 100% |  |  | 100% |  |  | 100%
Cc1ccc(N=C2C(=CSc3ccc(F)cc3)C(C)c3ccccc32)cc1 (centres unmarked) [Example 1-57] | 100% | 100% | 100% | 100% | 100% | 100% | 100% | 100% | 100% |  | 100% |  |  |  |  |  | 
